Measured values as given in ChEMBL document CHEMBL1201862, “PubChem BioAssay data set” (2004).
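Test compounds were applied to cells in 96-well plates for 48 hours at 5 doses. Here, GI50 denotes the concentration required for 50% inhibition of growth.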 The source made the active and inactive calls. No stated cut-off is given here; in the data, active = GI50 up to about 1.1 µM and inactive = higher.

Experiments:
Experiment in all cases: DTP human tumour cell line panel, 48 h
[1] = tested on: MDA-N
[2] = tested on: ACHN
[3] = tested on: NCI-H226
[4] = tested on: RPMI-8226
[5] = tested on: UO-31
[6] = tested on: HCT-116
[7] = tested on: LOX IMVI
[8] = tested on: NCI-H522
[9] = tested on: CAKI-1
[10] = tested on: MDA-MB-231
[11] = tested on: SK-MEL-28
[12] = tested on: NCI-H23
[13] = tested on: HT-29
[14] = tested on: SW-620
[15] = tested on: CCRF-CEM
[16] = tested on: MCF7
[17] = tested on: SN12C
[18] = tested on: U-251
[19] = tested on: UACC-257
[20] = tested on: EKVX

Compound	GI50 [1]	GI50 [2]	GI50 [3]	GI50 [4]	GI50 [5]	GI50 [6]	GI50 [7]	GI50 [8]	GI50 [9]	GI50 [10]	GI50 [11]	GI50 [12]	GI50 [13]	GI50 [14]	GI50 [15]	GI50 [16]	GI50 [17]	GI50 [18]	GI50 [19]	GI50 [20]
CCN(CC)CCCNc1[nH]c2ccccc2c2nc3ccc(OC)cc3c1-2	1.56 µM (inactive)	4.27 µM (inactive)	3.4 µM (inactive)	0.43 µM (active)	4.01 µM (inactive)	0.618 µM (active)	1.11 µM (active)	1.46 µM (inactive)	2.71 µM (inactive)	1.54 µM (inactive)	1.69 µM (inactive)	1.57 µM (inactive)	0.521 µM (active)	0.828 µM (active)	0.61 µM (active)	1.04 µM (active)	2.1 µM (inactive)	1.77 µM (inactive)	1.79 µM (inactive)	1.71 µM (inactive)
COc1cc(C=C2C(C)=NN(c3cccc(Cl)c3)C23C(Cl)C(=O)N3c2nc3ccccc3s2)ccc1O (stereo not given)	16.3 µM (inactive)	19.2 µM (inactive)	22.4 µM (inactive)	7.26 µM (inactive)	20.7 µM (inactive)	19.9 µM (inactive)	18.1 µM (inactive)	3.5 µM (inactive)	26.3 µM (inactive)	4.08 µM (inactive)	23.3 µM (inactive)	18.4 µM (inactive)	4.53 µM (inactive)	10.7 µM (inactive)	2.07 µM (inactive)	28.2 µM (inactive)	–	15 µM (inactive)	23.1 µM (inactive)	31.4 µM (inactive)
CN=C(n1ccnc1)n1ccnc1	> 100 µM (inactive)	–	> 100 µM (inactive)	> 100 µM (inactive)	> 100 µM (inactive)	> 100 µM (inactive)	> 100 µM (inactive)	> 100 µM (inactive)	> 100 µM (inactive)	> 100 µM (inactive)	> 100 µM (inactive)	> 100 µM (inactive)	> 100 µM (inactive)	> 100 µM (inactive)	> 100 µM (inactive)	> 100 µM (inactive)	> 100 µM (inactive)	> 100 µM (inactive)	> 100 µM (inactive)	> 100 µM (inactive)
CCOC(=O)C1C2CCC1CC(=NNc1ccc([N+](=O)[O-])cc1[N+](=O)[O-])C2 (stereo not given)	> 50 µM (inactive)	> 50 µM (inactive)	37.4 µM (inactive)	42.4 µM (inactive)	> 50 µM (inactive)	> 50 µM (inactive)	> 50 µM (inactive)	> 50 µM (inactive)	14.8 µM (inactive)	> 50 µM (inactive)	> 50 µM (inactive)	> 50 µM (inactive)	47.2 µM (inactive)	> 50 µM (inactive)	> 50 µM (inactive)	> 50 µM (inactive)	> 50 µM (inactive)	> 50 µM (inactive)	> 50 µM (inactive)	30.3 µM (inactive)
Nc1n[nH]c2c(C(=O)Nc3ccc(Cl)cc3)c(N)n(N)c(=O)c12	> 100 µM (inactive)	–	> 100 µM (inactive)	> 100 µM (inactive)	> 100 µM (inactive)	> 100 µM (inactive)	> 100 µM (inactive)	> 100 µM (inactive)	> 100 µM (inactive)	> 100 µM (inactive)	> 100 µM (inactive)	> 100 µM (inactive)	> 100 µM (inactive)	> 100 µM (inactive)	> 100 µM (inactive)	> 100 µM (inactive)	> 100 µM (inactive)	> 100 µM (inactive)	> 100 µM (inactive)	> 100 µM (inactive)
CCOc1cc(NC(C)=O)ccc1C(=O)NN1C(=O)C(Cl)C1c1ccc(O)c(OC)c1 (stereo not given)	14.2 µM (inactive)	16.6 µM (inactive)	10.2 µM (inactive)	17.3 µM (inactive)	2.43 µM (inactive)	18.2 µM (inactive)	2.17 µM (inactive)	6.35 µM (inactive)	16.5 µM (inactive)	13.3 µM (inactive)	16.9 µM (inactive)	11.7 µM (inactive)	16.3 µM (inactive)	21.4 µM (inactive)	4.67 µM (inactive)	13.8 µM (inactive)	13.3 µM (inactive)	–	11.8 µM (inactive)	16.1 µM (inactive)
O=C1NC(N2CCCC(CO)C2)=N/C1=C\c1ccc(O)cc1 (stereo not given)	> 100 µM (inactive)	> 100 µM (inactive)	> 100 µM (inactive)	> 100 µM (inactive)	> 100 µM (inactive)	> 100 µM (inactive)	> 100 µM (inactive)	> 100 µM (inactive)	> 100 µM (inactive)	> 100 µM (inactive)	> 100 µM (inactive)	> 100 µM (inactive)	> 100 µM (inactive)	> 100 µM (inactive)	> 100 µM (inactive)	> 100 µM (inactive)	> 100 µM (inactive)	> 100 µM (inactive)	> 100 µM (inactive)	> 100 µM (inactive)
COc1ccc(OC)c(NS(=O)(=O)c2ccc3nc(C)n(NS(=O)(=O)c4cc(OC)ccc4OC)c(=O)c3c2)c1	41.7 µM (inactive)	> 100 µM (inactive)	> 100 µM (inactive)	20.8 µM (inactive)	87.9 µM (inactive)	21.7 µM (inactive)	77.6 µM (inactive)	> 100 µM (inactive)	> 100 µM (inactive)	> 100 µM (inactive)	> 100 µM (inactive)	69.5 µM (inactive)	74.8 µM (inactive)	96.4 µM (inactive)	75.7 µM (inactive)	87.1 µM (inactive)	> 100 µM (inactive)	> 100 µM (inactive)	> 100 µM (inactive)	> 100 µM (inactive)
CC(=O)N1C2=CCCC2(C)c2ccccc21 (stereo not given)	> 100 µM (inactive)	> 100 µM (inactive)	> 100 µM (inactive)	10.7 µM (inactive)	57.5 µM (inactive)	37.1 µM (inactive)	> 100 µM (inactive)	26.8 µM (inactive)	> 100 µM (inactive)	> 100 µM (inactive)	> 100 µM (inactive)	86.9 µM (inactive)	63.5 µM (inactive)	> 100 µM (inactive)	> 100 µM (inactive)	> 100 µM (inactive)	70.5 µM (inactive)	> 100 µM (inactive)	68.7 µM (inactive)	> 100 µM (inactive)
N#Cc1c(-c2ccccc2)c2c([nH]c1=O)-c1cc([N+](=O)[O-])ccc1CCC2	36.5 µM (inactive)	24.8 µM (inactive)	27.1 µM (inactive)	32.9 µM (inactive)	41.4 µM (inactive)	30.3 µM (inactive)	25.5 µM (inactive)	27.5 µM (inactive)	41.3 µM (inactive)	51.8 µM (inactive)	29.8 µM (inactive)	25.2 µM (inactive)	34.8 µM (inactive)	36.7 µM (inactive)	37.6 µM (inactive)	27.7 µM (inactive)	44.1 µM (inactive)	33.3 µM (inactive)	31.1 µM (inactive)	26.7 µM (inactive)
[N-]=[N+]=C1N=CN=C1c1nc[nH]n1	41.9 µM (inactive)	39 µM (inactive)	> 100 µM (inactive)	10.8 µM (inactive)	19.6 µM (inactive)	25 µM (inactive)	12 µM (inactive)	30.7 µM (inactive)	6.31 µM (inactive)	29 µM (inactive)	76.7 µM (inactive)	34.1 µM (inactive)	> 100 µM (inactive)	22.1 µM (inactive)	3.98 µM (inactive)	81.1 µM (inactive)	20.9 µM (inactive)	27 µM (inactive)	57 µM (inactive)	40 µM (inactive)
C[C@]1(CO)[C@H]2CC[C@@]34C=C[C@@](CO)(CC[C@H]3[C@]2(C)CC[C@H]1O)C4	34.2 µM (inactive)	31.9 µM (inactive)	> 100 µM (inactive)	27 µM (inactive)	35.4 µM (inactive)	56.9 µM (inactive)	48.4 µM (inactive)	64.4 µM (inactive)	30.9 µM (inactive)	28.2 µM (inactive)	> 100 µM (inactive)	40.4 µM (inactive)	> 100 µM (inactive)	> 100 µM (inactive)	> 100 µM (inactive)	59.4 µM (inactive)	> 100 µM (inactive)	63 µM (inactive)	87.5 µM (inactive)	29.4 µM (inactive)
OC1CN=C2c3ccccc3C(O)(c3ccc(Cl)cc3)N2C1 (stereo not given)	35.4 µM (inactive)	> 100 µM (inactive)	83.4 µM (inactive)	50.7 µM (inactive)	37.4 µM (inactive)	35.6 µM (inactive)	45.4 µM (inactive)	26.2 µM (inactive)	> 100 µM (inactive)	57.8 µM (inactive)	49.7 µM (inactive)	53.3 µM (inactive)	32.9 µM (inactive)	> 100 µM (inactive)	36.7 µM (inactive)	48.2 µM (inactive)	57.7 µM (inactive)	66.7 µM (inactive)	–	> 100 µM (inactive)
COc1cc(OC)c(-c2cc(=O)c3c(OC)c(OC)c(OC)c(OC)c3o2)cc1OC	> 100 µM (inactive)	> 100 µM (inactive)	> 100 µM (inactive)	> 20.1 µM (inactive)	20.8 µM (inactive)	> 100 µM (inactive)	> 100 µM (inactive)	17.7 µM (inactive)	36.1 µM (inactive)	19.8 µM (inactive)	> 100 µM (inactive)	33 µM (inactive)	> 100 µM (inactive)	> 100 µM (inactive)	> 28.4 µM (inactive)	> 100 µM (inactive)	> 100 µM (inactive)	64 µM (inactive)	> 100 µM (inactive)	> 100 µM (inactive)
